In patent publication US20250072423A1, “THIOPHENE ACETIC ACID FOR PLANT GROWTH REGULATION” (priority 2023, published 2025):
pIC50: −log10 of the molar value.

Key:
WT Arabidopsis seedlings [1] = assay: Root growth of WT Arabidopsis seedlings (Experiment 6); type: in vivo, A. thaliana; settings: Arabidopsis thaliana, 144 h; 6 days growth, 8-day-old seedlings; read-out: concentration that reduced the primary root length to 50% of control
Description: (§1) Arabidopsis Columbia-0 wild type (WT) was used for assessing the effect of TAA on root growth and its effects on the expression of auxin-responsive genes. Seeds of A. thaliana were surface sterilized by suspending in 70% ethanol for 1 minute, followed by treatment with 10% bleach for 20 minutes. After thorough washing with sterile distilled water, the sterilized seeds were plated onto germination medium (half-strength Murashige and Skoog basal medium with vitamins (1/2 MS) medium supplemented with 1% sucrose and 0.7% plant agar) for germination. Germination was initiated by incubating the seeds in darkness at 5° C. for 2 days, followed by transfer to a light environment at 22° C. with a photoperiod of 16-h light/8-h dark for further growth. Stock solutions of TAA were prepared in DMSO (dimethyl sulfoxide). In control treatments, DMSO was used in equal amounts as present in the greatest concentration of TAA tested.
To analyze the effect of TAA on root growth, WT Arabidopsis seedlings were germinated as described and uniform-looking 8-day-old seedlings were transferred to germination medium supplemented with different concentrations of TAA (0.1, 1, 2, 5, 10, 25, 50, and 100 μM) or NAA/IAA/IBA (0.05, 0.1, 1, 2 and 5 μM). For IBA, two additional concentrations (10 and 25 μM) were also analyzed. Seedlings grown on media supplemented with an equal volume of DMSO were used as control. The seedlings were allowed to grow for 6 days and the plates were photographed at 24 h intervals. Primary root length was measured using Image J software. The difference in the number of lateral roots (LR) and root hairs was visually observed. Microscopic images were taken on a Leica Thunder Imager System (Leica Microsystems Ltd., Switzerland) and the images were processed with LAS X software.

[2] = tested on: tomato cotyledon explants; assay: Root regeneration from tomato cotyledon explants in vitro (Experiment 2); type: cell-based, tomato cultivar Roma VF; settings: 0.05 and 0.1 mg/L, no other hormones; for organogenesis from tomato cotyledon explants (root formation): within 7 days
Description: Seeds of tomato cultivar Roma VF were sterilized by treating with 75% ethanol for 30 seconds at room temperature and washed with sterile water for five times. The seeds were then treated with 15% sodium hypochlorite for 10 minutes and washed five times in sterile water. The sterilized seeds were germinated on half-strength Murashige and Skoog (MS) medium in vitro. Cotyledons from 10-day old seedlings before first true leaves emerged were used as starting explants in all the experiments. The base and tip of the cotyledons were excised and the explants were transferred with the abaxial surface in contact with the culture medium. The basic culture medium consists of MS medium with vitamins supplemented with 30 g/L sucrose and gelled with 0.8% agar, and the pH of the medium was adjusted to 5.8±0.2. Plates were maintained at a light cycle of 16/8 hours day/night, temperature of 26/24° C. day/night, and relative humidity of 70% and subcultured on the same media after 14 days. Observations were made on 7, 14, 21 and 28 days of growth. All experiments were conducted with at least three replicates of 10 explants each.
In order to analyze the effect of TAA on root regeneration, the basic media were supplemented with different concentrations of TAA (0.05 and 0.1 mg/L) and further compared with individual effect of widely used auxins (IAA, NAA, IBA, 2,4 D) at similar concentrations.

[3] = tested on: tomato cotyledon explants; assay: Shoot regeneration from tomato cotyledon explants with 1 mg/L BAP (Experiment 3); type: cell-based, tomato cultivar Roma VF
From the text: The sterilized seeds were germinated on half-strength Murashige and Skoog (MS) medium in vitro. Cotyledons from 10-day old seedlings before first true leaves emerged were used as starting explants in all the experiments. The base and tip of the cotyledons were excised and the explants were transferred with the abaxial surface in contact with the culture medium. The basic culture medium consists of MS medium with vitamins supplemented with 30 g/L sucrose and gelled with 0.8% agar, and the pH of the medium was adjusted to 5.8±0.2. […] All experiments were conducted with at least three replicates of 10 explants each.
To analyse the effects on shoot regeneration, the basic media was supplemented with 1 mg/L BAP and different concentrations of TAA, IAA, NAA, IBA and 2,4 D (0.05, 0.1, 0.5, 1.0 and 2.0 mg/L) individually. Since there are no previous reports on suitable concentration ranges for TAA in tomato regeneration, concentrations at 50.0, 100.0, 200.0 and 300.0 mg/L were analysed additionally for TAA.

tobacco leaf explants = assay: Shoot organogenesis from tobacco leaf explants in vitro (Experiment 4); type: cell-based, Nicotiana tabacum L. cv. Petit Havana SRI; settings: 8 weeks
WT Arabidopsis seedlings [4] = assay: Root growth of WT Arabidopsis seedlings in the presence of NPA (Experiment 7); type: in vivo, A. thaliana; settings: NPA even at low concentrations (0.5 μM)
Description: as §1
To analyze the effect of TAA on root growth in the presence of NPA (N-1-naphthylphthalamic acid), WT Arabidopsis seedlings were germinated as described and uniform-looking 8-day-old seedlings were transferred to germination medium supplemented with different concentrations of TAA (5 and 10 μM) and different concentrations of NPA (0, 0.5, 1, 2, 4, and 8 μM). The seedlings were allowed to grow for 6 days and the plates were photographed at 24 h intervals. […]

[5] = 1 mg/L IAA added to 3% MS + 2 mg/L kinetin
[6] = basic shoot regeneration media: 3% MS media + 2 mg/L kinetin

`O=C(O)Cc1cccc2ccccc12` [NAA, naphthalene-1-acetic acid] was tested. Which pIC50 (WT Arabidopsis seedlings [1]) did it give?
Its pIC50 is 7.30.

What about the “organogenesis from tomato cotyledon explants (root formation)” value (“organogenesis … (root formation)” for short) [2] of the same compound?
The value was “rapid root formation”.

What about the shoot organogenesis ([3]; 0.05 mg/L with 1 mg/L BAP) of the same compound?
Its shoot organogenesis is “most explants produced callus, but a few produced shoots”.

And the shoot organogenesis ([3]; higher concentrations (above 0.05 up to 2.0 mg/L) with 1 mg/L BAP, Day 28)?
The shoot organogenesis was “mostly callus by Day 28, but a few of them showed root formation”.

What does the source list for `O=C(O)Cc1c[nH]c2ccccc12` [IAA, indole-3-acetic acid, reference compound]?
pIC50 (WT Arabidopsis seedlings [1]): 7.00; increase of number of shoots regenerated per explant versus basic shoot regeneration media (tobacco leaf explants; [5]): more than 3 times; increase of total number of shoots regenerated versus basic shoot regeneration media (tobacco leaf explants; [5]): more than 3 times; organogenesis from tomato cotyledon explants (root formation) [2]: rapid root formation; shoot organogenesis ([3]; 2 mg/L with 1 mg/L BAP): mostly callus and root formation; shoot organogenesis ([3]; 0.05, 0.1, 0.5 and 1.0 mg/L with 1 mg/L BAP): better shoot formation than NAA

How did the “average number of shoots per explant” value (tobacco leaf explants; [6]) turn out when `c1coc(CNc2ncnc3[nH]cnc23)c1` [kinetin, reference compound] was run?
Its value is 3.10.

What about the “total number of shoots regenerated per plate” value (tobacco leaf explants; [6]) of the same compound?
Its value is 21.7.

Which “primary root length and number of LR” value (WT Arabidopsis seedlings [4]) does the source give for `O=C(O)c1ccccc1C(=O)Nc1cccc2ccccc12` [NPA, N-1-naphthylphthalamic acid, reference compound] here?
Its value is “reduced primary root length and the number of LR”.

How did the “organogenesis from tomato cotyledon explants” value ([2]; by Day 14) turn out when `O=C(O)COc1ccc(Cl)cc1Cl` [2,4D, 2,4-dichlorophenoxyacetic acid] was run?
Its value is “formed more callus and few of the explants showed longer roots”.

What about the “organogenesis … (root formation)” value [2] of the same compound?
Its value is “the explants enlarged in size and started showing signs of callus formation”.

What about the shoot organogenesis ([3]; 0.05, 0.1, 0.5, 1.0 and 2.0 mg/L with 1 mg/L BAP) of the same compound?
The shoot organogenesis was “did not show any shoot formation”.

With `O=C(O)CCCc1c[nH]c2ccccc12` [IBA, indole-3-butyric acid] as the compound, how does the pIC50 (WT Arabidopsis seedlings [1]) read?
Its pIC50 is 5.00.

What about the “organogenesis … (root formation)” value [2] of the same compound?
Its value is “rapid root formation”.

And the shoot organogenesis ([3]; 0.05, 0.1 and 0.5 mg/L with 1 mg/L BAP)?
Its shoot organogenesis is “callus and well-defined shoot formation”.

What about the shoot organogenesis ([3]; 1.0 and 2.0 mg/L with 1 mg/L BAP) of the same compound?
The shoot organogenesis was “mostly callus and some root formation”.
